Patent US11407736B2 (priority 2019, dated 2022)
Where two headings read alike, the source gives them in different places.

Tests used:
RIPK1 = RIPK1 (Homo sapiens (Human), UniProt Q13546); assay: RIPK1 ADP-Glo biochemical kinase assay
Experimental: The final reaction volume was 5.0ul.
Adding 5 μl of ADP-Glo™ terminated the reaction.

L929 cells = assay: L929 cell necroptosis assay (TNFa + zVAD, CellTiter-Glo); assay type: cell-based, murine
Outline: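 Murine L929 cells, plated 18 h beforehand at 10K cells/well in RPMI 1640 with 10% FBS, were switched to medium containing 40 uM zVAD-fmk and given compound from 4-fold serial dilutions. Viability after 18 h of TNFa stimulation at 37° C was read by CellTiter-Glo luminescence.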

U937 cells = assay: U937 cell necroptosis assay (TNFa + zVAD, CellTiter-Glo); assay type: cell-based, human
Outline: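 Human U937 and murine L929 cells in RPMI 1640/10% FBS were pre-incubated 1 h at 37 °C with serially diluted compound plus zVAD-fmk (U937 plated with 60 uM, L929 medium with 40 uM), then stimulated with 2 ng/mL TNFa (final). Viability read by CellTiter-Glo luminescence after 18 h.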

[1] = read-out: RIPK1 ADP-Glo Kinase (IC50)
[2] = Mus musculus, L929, L929 cells, TNFa + zVAD, read-out: L929-CTG-recovery, L929, TNFa + zVAD (IC50)
[3] = Homo sapiens, U-937, U937 cells, TNFa + zVAD, read-out: U937 Zvad TNF CTG Recovery, U937, TNFa + zVAD (IC50)
[4] = Mus musculus, L929, read-out: L929-CTG-recovery, L929, TNFa + zVAD (IC50), L929 cells, TNFa + zVAD
[5] = Homo sapiens, U-937, read-out: U937 Zvad TNF CTG Recovery, U937, TNFa + zVAD (IC50), U937 cells, TNFa + zVAD
[6] = L929 cells, TNFa + zVAD, read-out: L929-CTG-recovery, L929, TNFa + zVAD (IC50)

Sequence of RIPK1 (Q13546 whole entry, species assumed): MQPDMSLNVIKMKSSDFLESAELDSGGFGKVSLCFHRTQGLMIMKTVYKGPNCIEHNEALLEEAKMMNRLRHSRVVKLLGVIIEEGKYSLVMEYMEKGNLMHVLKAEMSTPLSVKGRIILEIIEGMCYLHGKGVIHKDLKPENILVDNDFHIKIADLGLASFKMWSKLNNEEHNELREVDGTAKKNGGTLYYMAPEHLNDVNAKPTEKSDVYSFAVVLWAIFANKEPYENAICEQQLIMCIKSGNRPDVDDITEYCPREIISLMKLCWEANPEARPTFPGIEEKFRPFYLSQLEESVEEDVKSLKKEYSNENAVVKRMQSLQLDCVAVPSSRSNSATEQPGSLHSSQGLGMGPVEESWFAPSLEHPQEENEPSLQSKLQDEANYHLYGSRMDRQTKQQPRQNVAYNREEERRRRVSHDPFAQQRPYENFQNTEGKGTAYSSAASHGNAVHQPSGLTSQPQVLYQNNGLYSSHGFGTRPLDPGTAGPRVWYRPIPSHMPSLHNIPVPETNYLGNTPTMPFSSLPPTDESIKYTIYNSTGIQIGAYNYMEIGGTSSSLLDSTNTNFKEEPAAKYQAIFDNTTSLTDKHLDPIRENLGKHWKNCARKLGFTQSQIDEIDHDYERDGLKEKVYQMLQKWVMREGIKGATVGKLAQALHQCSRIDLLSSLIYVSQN

Compound	IC50 (RIPK1; [1]) [nM]	IC50 (L929 cells; [2]) [nM]	IC50 (U937 cells; [3]) [nM]	IC50 (L929 cells; [4]) [nM]	IC50 (U937 cells; [5]) [nM]	IC50 (L929 cells; [6]) [nM]	IC50 (U937 cells; U937 cells, TNFa + zVAD, read-out: U937 Zvad TNF CTG Recovery, U937, TNFa + zVAD (IC50)) [nM]	IC50 (RIPK1) [nM]
CN1C(=O)[C@@H](NC(=O)c2cc(Oc3ccccc3)ccn2)COc2ccc(C#CC3(OC(=O)NCCCN4CCOCC4)COC3)cc21 [Compound I-130]	30.8	89.5	1.5					
CN1C(=O)[C@@H](NC(=O)c2cc(Oc3ccccc3)ccn2)COc2ccc(C#CC3(O)CCN(C(=O)c4cc(Oc5ccccc5)ccn4)CC3)cc21 [Compound I-131, (S)—N-(7-((4-hydroxy-1-(4-phenoxypicolinoyl)piperidin-4-yl)ethynyl)-5-methyl-4-oxo-2,3,4,5-tetrahydrobenzo[b][1,4]oxazepin-3-yl)-4-phenoxypicolinamide]	446	65.8	3.7					
CN1CC(O)(C#Cc2ccc3c(c2)N(C)C(=O)[C@@H](NC(=O)c2cc(Oc4ccccc4)ccn2)CO3)C1 [Compound I-137, (S)—N-(7-((3-hydroxy-1-methylazetidin-3-yl)ethynyl)-5-methyl-4-oxo-2,3,4,5-tetrahydrobenzo[b][1,4]oxazepin-3-yl)-4-phenoxypicolinamide]	23.6			333	5			
CN1C(=O)[C@@H](NC(=O)c2cc(Oc3ccccc3)ccn2)COc2ccc(C#CC(C)(C)CN3CCOCC3)cc21 [Compound I-140, (S)—N-(7-(3,3-dimethyl-4-morpholinobut-1-yn-1-yl)-5-methyl-4-oxo-2,3,4,5-tetrahydrobenzo[b][1,4]oxazepin-3-yl)-4-phenoxypicolinamide]	124	109	4.6					
CC(=O)O[C@@H](C(=O)O)[C@@H](OC(C)=O)C(=O)OCC(C)(C)C#Cc1ccc2c(c1)N(C)C(=O)[C@@H](NC(=O)c1cc(Oc3ccccc3)ccn1)CO2 [Compound I-145, (2R,3R)-2,3-diacetoxy-4-((2,2-dimethyl-4-((S)-5-methyl-4-oxo-3-(4-phenoxypicolinamido)-2,3,4,5-tetrahydrobenzo[b][1,4]oxazepin-7-yl)but-3-yn-1-yl)oxy)-4-oxobutanoic acid]	27.5	3050	8.6					
CN1CC(F)(C#Cc2ccc3c(c2)N(C)C(=O)[C@@H](NC(=O)c2cc(Oc4ccccc4)ccn2)CO3)C1 [Compound I-146]	17.3			18.3	0.4			
CN1C(=O)[C@@H](NC(=O)c2cc(Oc3ccccc3)ccn2)COc2ccc(CN3CCC4(CCOCC4)CC3)cc21 [Compound I-149, (S)—N-(7-((3-oxa-9-azaspiro[5.5]undecan-9-yl)methyl)-5-methyl-4-oxo-2,3,4,5-tetrahydrobenzo[b][1,4]oxazepin-3-yl)-4-phenoxypicolinamide]		11600	30					39.6
CN1C(=O)[C@@H](NC(=O)c2cc(Oc3ccccc3)ccn2)COc2ccc(C#CC3(O)CN(C(=O)C(F)(F)F)C3)cc21 [Compound I-151, (S)—N-(7-((3-hydroxy-1-(2,2,2-trifluoroacetyl)azetidin-3-yl)ethynyl)-5-methyl-4-oxo-2,3,4,5-tetrahydrobenzo[b][1,4]oxazepin-3-yl)-4-phenoxypicolinamide]	55.4			1080	17			
CN1C(=O)[C@@H](NC(=O)c2cc(OC3CCC3)ccn2)COc2ccc(C#CC(C)(C)O)cc21 [Compound I-152, (S)-4-cyclobutoxy-N-(7-(3-hydroxy-3-methylbut-1-yn-1-yl)-5-methyl-4-oxo-2,3,4,5-tetrahydrobenzo[b][1,4]oxazepin-3-yl)picolinamide]	10.3	2510	39.1					
CN1C(=O)[C@@H](NC(=O)c2cc(OC3CCC3)ccn2)COc2ccc(C#CC3(O)COC3)cc21 [Compound I-153, (S)-4-cyclobutoxy-N-(7-((3-hydroxyoxetan-3-yl)ethynyl)-5-methyl-4-oxo-2,3,4,5-tetrahydrobenzo[b][1,4]oxazepin-3-yl)picolinamide]	32.6	1240	16.1					

The next lines start with results.

IC50 (RIPK1; [1]) [nM]	Compound	IC50 (L929 cells; [2]) [nM]	IC50 (U937 cells; [3]) [nM]	IC50 (L929 cells; [4]) [nM]	IC50 (U937 cells; [5]) [nM]	IC50 (L929 cells; [6]) [nM]	IC50 (U937 cells; U937 cells, TNFa + zVAD, read-out: U937 Zvad TNF CTG Recovery, U937, TNFa + zVAD (IC50)) [nM]	IC50 (RIPK1) [nM]
35.2	CN1C(=O)[C@@H](NC(=O)c2cc(Oc3ccccc3)ccn2)COc2ccc(C#CC3(F)COC3)cc21 [Compound I-129, (S)—N-(7-((3-fluorooxetan-3-yl)ethynyl)-5-methyl-4-oxo-2,3,4,5-tetrahydrobenzo[b][1,4]oxazepin-3-yl)-4-phenoxypicolinamide]	24.1	0.7					
30.5	CN1C(=O)[C@@H](NC(=O)c2cc(Oc3ccccc3)ccn2)COc2ccc(C#CC3(O)CCNCC3)cc21 [Compound I-132, (S)—N-(7-((4-hydroxypiperidin-4-yl)ethynyl)-5-methyl-4-oxo-2,3,4,5-tetrahydrobenzo[b][1,4]oxazepin-3-yl)-4-phenoxypicolinamide]	4600	35.9					
52.8	CC(=O)N1CCC(O)(C#Cc2ccc3c(c2)N(C)C(=O)[C@@H](NC(=O)c2cc(Oc4ccc(F)cc4)ccn2)CO3)CC1 [Compound I-134, (S)—N-(7-((l-acetyl-4-hydroxypiperidin-4-yl)ethynyl)-5-methyl-4-oxo-2,3,4,5-tetrahydrobenzo[b][1,4]oxazepin-3-yl)-4-(4-fluorophenoxy)picolinamide]	608	27.4					
111	CN1CCC(O)(C#Cc2ccc3c(c2)N(C)C(=O)[C@@H](NC(=O)c2cc(Oc4ccc(F)cc4)ccn2)CO3)CC1 [Compound I-135, (S)-4-(4-fluorophenoxy)-N-(7-((4-hydroxy-1-methylpiperidin-4-yl)ethynyl)-5-methyl-4-oxo-2,3,4,5-tetrahydrobenzo[b][1,4]oxazepin-3-yl)picolinamide]	2630	224					
26.7	CN1C(=O)[C@@H](NC(=O)c2cc(Oc3ccccc3)ccn2)COc2ccc(C#CC3(O)CNC3)cc21 [Compound I-136, (S)—N-(7-((3-hydroxyazetidin-3-yl)ethynyl)-5-methyl-4-oxo-2,3,4,5-tetrahydrobenzo[b][1,4]oxazepin-3-yl)-4-phenoxypicolinamide]	4970	15.2					
76.9	C=C(C#Cc1ccc2c(c1)N(C)C(=O)[C@@H](NC(=O)c1cc(Oc3ccc(F)cc3)ccn1)CO2)CCNC [Compound I-138, (S)-4-(4-fluorophenoxy)-N-(5-methyl-7-(5-(methylamino)-3-methylenepent-1-yn-1-yl)-4-oxo-2,3,4,5-tetrahydrobenzo[b][1,4]oxazepin-3-yl)picolinamide]	3150	122					
414	C[C@H](NC(=O)OC(C)(C)C)C(=O)OCC(C)(C)C#Cc1ccc2c(c1)N(C)C(=O)[C@@H](NC(=O)c1cc(Oc3ccccc3)ccn1)CO2 [Compound I-141, tert-butyl ((S)-1-((2,2-dimethyl-4-((S)-5-methyl-4-oxo-3-(4-phenoxypicolinamido)-2,3,4,5-tetrahydrobenzo[b][1,4]oxazepin-7-yl)but-3-yn-1-yl)oxy)-1-oxopropan-2-yl)-12-azanecarboxylate]					120	2.2	
24.2	C[C@H](N)C(=O)OCC(C)(C)C#Cc1ccc2c(c1)N(C)C(=O)[C@@H](NC(=O)c1cc(Oc3ccccc3)ccn1)CO2 [Compound I-142, 2,2-dimethyl-4-((S)-5-methyl-4-oxo-3-(4-phenoxypicolinamido)-2,3,4,5-tetrahydrobenzo[b][1,4]oxazepin-7-yl)but-3-yn-1-yl L-alaninate]	77.3	1.4					
22	CN1C(=O)[C@@H](NC(=O)c2cc(Oc3ccccc3)ccn2)COc2ccc(C#CC(C)(C)COC(=O)CCC(=O)O)cc21 [Compound I-144, (S)-4-((2,2-dimethyl-4-(5-methyl-4-oxo-3-(4-phenoxypicolinamido)-2,3,4,5-tetrahydrobenzo[b][1,4]oxazepin-7-yl)but-3-yn-1-yl)oxy)-4-oxobutanoic acid]	156	1.2					
17.3	CN1C(=O)[C@@H](NC(=O)c2cc(Oc3ccccc3)ccn2)COc2ccc(C#CC3(OC(=O)CCC(=O)O)COC3)cc21 [Compound I-147, (S)-4-((3-((5-methyl-4-oxo-3-(4-phenoxypicolinamido)-2,3,4,5-tetrahydrobenzo[b][1,4]oxazepin-7-yl)ethynyl)oxetan-3-yl)oxy)-4-oxobutanoic acid]		1.2			154		
33.7	CN1C(=O)[C@@H](NC(=O)c2cc(Oc3ccc(F)cc3)ccn2)COc2ccc(C#CC(C)(C)CO)cc21 [Compound I-148, (S)-4-(4-fluorophenoxy)-N-(7-(4-hydroxy-3,3-dimethylbut-1-yn-1-yl)-5-methyl-4-oxo-2,3,4,5-tetrahydrobenzo[b][1,4]oxazepin-3-yl)picolinamide]	359	5.2					
